Measurements as given in patent US8809010B2, “Method for prophylactic treatment of alzheimer's disease using inhibitors of glutaminyl cyclase and glutamate cyclases” (Probiodrug AG, priority 2003, dated 2014).
One block for each compound: values may come before it. Ends that are not written are not given here.

Tests used:
[1] = tested on: QC in porcine pituitary homogenate; assay: Formation of [pGlu3]Aβ3-11a in porcine pituitary homogenate, MALDI-TOF; format: biochemical; settings: for formation of [pGlu^3]Aβ3-11a from [Gln^3]Aβ1-11a, consecutive catalysis by DP IV and QC: pituitary homogenate with added DPIV from porcine kidney
Experimental: (§1) Matrix-assisted laser desorption/ionization mass spectrometry was carried out using the Hewlett-Packard G2025 LD-TOF System with a linear time of flight analyzer. […] Samples (5 μl) were mixed with equal volumes of the matrix solution. For matrix solution we used DHAP/DAHC, prepared by solving 30 mg 2′,6′-dihydroxyacetophenone (Aldrich) and 44 mg diammonium hydrogen citrate (Fluka) in 1 ml acetonitrile/0.1% TFA in water (1/1, v/v). A small volume (≈1 μl) of the matrix-analyte-mixture was transferred to a probe tip and immediately evaporated in a vacuum chamber (Hewlett-Packard G2024A sample prep accessory) to ensure rapid and homogeneous sample crystallization.

DP IV (porcine kidney) = target: T1, DP IV (porcine kidney) (Sus scrofa, UniProt P22411); assay: DP IV cleavage of [Gln3]Aβ1-11a, MALDI-TOF; format: biochemical
T1 construct: Measurements were carried out using purified DP IV (porcine kidney); from tissue; host or cells: porcine kidney
Experimental: as §1

[2] = Aβ aggregation assay with flow cytometry; format: physicochemical; settings: 10 μM peptide, up to 24 h
Experimental: At different times, samples were removed, diluted to 10 nM (based on the initial concentration of the monomer), and analyzed by flow cytometry.
Seedless Aβ peptides were diluted to 10 μM (final total peptide concentration) into 50 mM sodium acetate, pH 5.5 containing 2 mM DTT and 100 mM NaCl and incubated at 37° C. without shaking. For fibril formation analysis, the peptides were either used as a mixture of unlabeled peptide (80%) and the respective fluorescence labeled peptide (20%) or as unlabeled peptides alone. […] In order to characterize the progress of the reaction, aliquots were removed at the indicated times, diluted to 10 nM into PBS-T (0.05% Tween-20) and analyzed. For reactions containing unlabeled peptides only, prior to flow cytometry aliquots were diluted to 5 nM into PBS-T and incubated with fluorescence labeled antibody 4G8 (Chemicon, Tececula, Calif.) at 1 nM for 1 h at 4° C.
To ensure identical conditions for all measurements, all samples were measured in TruCount Tubes (BD Biosciences) and analysis was stopped after 20,000 beads were counted. Counts were transferred into ANSMS for evaluation (Alzheimer normalized specific measurement signal: event counts from flow cytometry analysis normalized to the size of the particles, i.e. to a mean size of FS Log=250).

THP-1 monocytes = assay: TransWell chemotaxis assay; format: cell-based, human; settings: supernatant of transfected HEK293 cells
Experimental: The chemotaxis assay was performed using 24 well TransWell plates with a pore size of 5 μm (Corning). Media, containing human MCP-1 variants expressed in HEK293, were used as chemoattractant. To this avail, 600 μl of the culture media of N-terminal human MCP-1 variants was applied directly or in dilutions 1:3, 1:10 and 1:30 in RPMI1640 to the lower chamber of the TransWell plate. Furthermore, undiluted media of HEK293 cells transfected with vector control were applied as negative control to the lower chamber. THP-1 cells were harvested and resuspended in RPMI1640 in a concentration of 1*10^6 cells/100 μl and applied in 100 μl aliquots to the upper chamber. Cells were allowed to migrate towards the chemoattractant for 2 h at 37° C. Subsequently, cells from the upper chamber were discarded and the lower chamber was mixed with 70 mM EDTA in PBS and incubated for 15 min at 37° C. to release cells attached to the membrane. Afterwards, cells migrated to the lower chamber were counted using a cell counter system (Schärfe System). The chemotactic index was calculated by dividing cells migrated to the stimulus from cells migrated to the negative control.

human QC [3] = target: T2, human QC (Homo sapiens, UniProt Q16769); settings: cited from earlier work
T2 construct: The cDNA of the mature QC starting with codon 38 was fused in frame with the plasmid encoded 6× histidine tag; 6xHis; made in house; host or cells: Pichia pastoris X33 (pPICZαB, secreted); also E. coli M15 (pQE-31)

human QC [4] = target: T2, human QC; assay: Enzyme inactivation/reactivation procedures; format: biochemical; settings: for inactivation of human QC: extensive dialysis against 5 mM chelator
human QC [5] = target: T2, human QC; assay: Long-term Glu1-cyclization of Aβ-derived peptides by recombinant human QC, MALDI-TOF; format: biochemical; settings: pH 5.2 and 6.5
Experimental: For long-term testing of Glu^1-cyclization, Aβ-derived peptides were incubated in 100 μl 0.1 M sodium acetate buffer, pH 5.2 or 0.1 M Bis-Tris buffer, pH 6.5 at 30° C. Peptides were applied in 0.5 mM [Aβ3-11a] or 0.15 mM [Aβ3-21a] concentrations, and 0.2 U QC was added all 24 hours. In case of Aβ3-21a, the assays contained 1% DMSO. At different times, samples were removed from the assay tube, peptides extracted using ZipTips (Millipore) according to the manufacturer's recommendations, mixed with matrix solution (1:1 v/v) and subsequently the mass spectra recorded. Negative controls did either contain no QC or heat deactivated enzyme.
The QC-catalyzed formation of [pGlu^3]Aβ3-11a and [pGlu^3]Aβ3-21a was investigated at pH 5.2 and 6.5, respectively. If the QC-inhibitor benzimidazole was added to the solution before starting the assay by addition of QC, substrate conversion resulting in [pGlu^3]Aβ3-11a or [pGlu^3]Aβ3-21a was suppressed (FIGS. 15E and F). If QC was boiled before addition, formation of the pGlu-peptides was negligible (FIGS. 15A and B).

mammalian QC = mammalian QC (Bos taurus, UniProt Q28120); settings: cited from earlier work
human QC [6] = target: T2, human QC; assay: Qualitative substrate conversion (MALDI-TOF / fluorometric); format: biochemical
Experimental: as §1
In order to further investigate the specificity and selectivity of the QCs, peptides were synthesized comprising either a modified N-terminal glutaminyl residue or a modified amino acid in the second position. […] Due to the cyclization of the glutaminyl residue or its analog, respectively, a mass difference of the substrate and the product of catalysis is detected. In cases of ammonia liberation of one mole per mole of substrate, the conversion was also analyzed quantitatively using the spectrophotometric assay.

[7] = Nonenzymatic pGlu-formation at pH 6.0 followed for 4 weeks; settings: pH 6.0, 4 weeks
[8] = Thioflavin T assay of fibril formation; format: physicochemical
Experimental: The observations for the Aβ42 peptides were substantiated using a common ThT fluorescence assay (FIG. 24-6D). […] The typical lag phase, i.e. the thermodynamically unfavorable period, in which the seeds are generated, is displaced by a hyperbolic initial phase. Thus, there is a much higher tendency to formation of ThT positive initial aggregates.
Fibril formation analysis using Thioflavin T fluorescence was performed essentially as described previously (Chalifour R J, McLaughlin R W, Lavoie L, Morissette C, Tremblay N, Boule M, Sarazin P, Stea D, Lacombe D, Tremblay P, Gervais F 2003 Stereoselective interactions of peptide inhibitors with the beta-amyloid peptide. J Biol Chem 278:34874-34881). The DMSO stock solution was diluted in PBS to a final concentration of 50 μM of Aβ peptide. The peptide solution was added to an equal volume of ThT solution (20 μM ThT, 0.3 M NaCl, 0.01% NaN3) and applied to a 96-well microplate. Routinely, assays of each peptide were performed in triplicate on one plate. The plate was covered with an adhesive film (EXCEL Scientific, Wrightwood, Calif., USA) and incubated in the plate reader at 30° C. for up to 250 h. The fluorescence was measured every 4 h (excitation 440 nm, emission […]).

physchem = settings: pKa of the substrate amino group, determined by titration

T2 sequence (Q16769 29-361): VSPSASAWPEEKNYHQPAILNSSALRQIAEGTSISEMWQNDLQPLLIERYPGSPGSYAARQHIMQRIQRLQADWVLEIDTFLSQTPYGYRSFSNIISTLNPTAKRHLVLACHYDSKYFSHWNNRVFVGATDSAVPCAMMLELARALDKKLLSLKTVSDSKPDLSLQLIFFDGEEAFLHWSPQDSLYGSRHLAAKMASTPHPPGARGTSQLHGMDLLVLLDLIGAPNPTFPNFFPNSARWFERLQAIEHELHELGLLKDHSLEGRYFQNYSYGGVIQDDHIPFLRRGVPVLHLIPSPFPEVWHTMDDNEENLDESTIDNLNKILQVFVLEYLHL
Chain of mammalian QC (Q28120 29-361): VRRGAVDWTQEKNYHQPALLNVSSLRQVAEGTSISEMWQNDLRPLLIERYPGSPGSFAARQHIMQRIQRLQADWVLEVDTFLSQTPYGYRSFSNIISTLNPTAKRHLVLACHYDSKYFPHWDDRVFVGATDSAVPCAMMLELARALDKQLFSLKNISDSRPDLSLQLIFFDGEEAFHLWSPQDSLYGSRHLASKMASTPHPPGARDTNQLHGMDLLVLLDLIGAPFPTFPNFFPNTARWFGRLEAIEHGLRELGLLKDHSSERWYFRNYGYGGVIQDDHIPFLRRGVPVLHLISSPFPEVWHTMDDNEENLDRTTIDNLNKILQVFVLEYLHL
T1 sequence (P22411 whole entry): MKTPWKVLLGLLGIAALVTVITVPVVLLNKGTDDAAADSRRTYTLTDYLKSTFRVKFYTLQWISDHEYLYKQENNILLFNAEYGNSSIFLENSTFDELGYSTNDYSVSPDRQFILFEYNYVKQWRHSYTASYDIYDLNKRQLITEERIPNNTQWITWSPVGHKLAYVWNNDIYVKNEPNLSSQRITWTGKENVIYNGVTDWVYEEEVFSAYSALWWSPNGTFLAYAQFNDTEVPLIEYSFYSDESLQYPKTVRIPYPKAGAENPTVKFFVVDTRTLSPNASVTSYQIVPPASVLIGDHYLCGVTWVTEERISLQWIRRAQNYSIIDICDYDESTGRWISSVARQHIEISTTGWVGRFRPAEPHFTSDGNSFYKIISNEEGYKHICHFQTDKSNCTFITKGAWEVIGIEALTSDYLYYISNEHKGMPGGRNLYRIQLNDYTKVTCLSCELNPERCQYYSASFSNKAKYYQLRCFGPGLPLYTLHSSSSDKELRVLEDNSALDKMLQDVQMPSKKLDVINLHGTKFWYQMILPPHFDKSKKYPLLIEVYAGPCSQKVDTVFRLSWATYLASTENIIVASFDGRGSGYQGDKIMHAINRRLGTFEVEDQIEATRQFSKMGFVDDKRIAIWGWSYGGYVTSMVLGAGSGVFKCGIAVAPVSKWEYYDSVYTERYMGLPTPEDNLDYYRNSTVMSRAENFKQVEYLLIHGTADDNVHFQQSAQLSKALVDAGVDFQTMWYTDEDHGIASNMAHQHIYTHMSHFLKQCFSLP

Compound: Fc1ccc(NC(=S)NCCCn2ccnc2)cc1
melting point: 147 to 148 °C

Compound: Aβ(1-42): SEQ ID NO: 20
fibril formation [2]: Only very little fibril formation

Compound: MCP-1 (WT): human MCP-1(1-76) expressed in HEK293 cells
chemotaxis of THP-1 cells (THP-1 monocytes): chemotactic response

Compound: O=C(O)c1cccc(C(=O)O)n1 [dipicolinic acid]
inhibition of human QC (human QC [3]): inhibited
inactivation of human QC (human QC [4]): almost completely inactivated

Compound: c1cnc2c(c1)ccc1cccnc12 [1,10-phenanthroline]
inhibition of human QC (human QC [3]): inhibited
formation of [pGlu^3]Aβ3-11a from [Gln^3]Aβ1-11a, consecutive catalysis by DP IV and QC [1]: not formed
formation of [pGlu^3]Aβ3-11a from [Gln^3]Aβ3-11a ([1]; porcine pituitary homogenate): inhibited
inactivation of human QC (human QC [4]): almost completely inactivated
inhibition of mammalian QC (mammalian QC): Inhibition

Compound: pGlu-Aβ(3-40): N-terminally pyroglutamate-modified Aβ(3-40)
aggregation, ThT fluorescence [8]: much faster aggregation compared to the non-cyclized counterpart

Compound: NC(=O)CC[C@H](N)C(=O)Nc1ccc2ccccc2c1 [H-Gln-βNA]
first-order rate constant of nonenzymatic pGlu-formation [7]: 1.2*10^−7 s^−1
pKa (physchem): 7.16 ± 0.01

Continued, in another order:

DPIV-catalysed formation of [Gln^3]Aβ3-11a from [Gln^3]Aβ1-11a (DP IV (porcine kidney)): completely prevented
Compound: CC(C)[C@H](N)C(=O)N1CCCC1 [Val-Pyrr, Val-Pyrrolidide]
formation of [pGlu^3]Aβ3-11a from [Gln^3]Aβ1-11a, consecutive catalysis by DP IV and QC [1]: not formed

glutamate-containing peptide as QC-substrate (human QC [5]): can also serve as QC-substrates
Compound: EFRHDSGYEVHHQKLVFFA-NH2 [Aβ3-21a]

conversion by human QC (human QC [6]): None of these compounds were converted
first-order rate constant of nonenzymatic pGlu-formation [7]: ≤ 1.0*10^−9 s^−1
Compound: N[C@@H](CCC(=O)O)C(=O)Nc1ccc2ccccc2c1 [H-Glu-βNA]

restoration of QC activity after inactivation (human QC [4]; 0.5 mM metal ion, 0.5 mM EDTA): Near-total restoration
Compound: O=S(=O)([O-])[O-].[Zn+2] [ZnSO4]
